From ChEMBL document CHEMBL3046632 (Med Chem Res, 2004)

How the values were obtained:
D(3) dopamine receptor = D(3) dopamine receptor (Rattus norvegicus, UniProt P19020); assay: biochemical
D(2) dopamine receptor = D(2) dopamine receptor (Rattus norvegicus, UniProt P61169); assay: Agonist activity at Rattus norvegicus (rat) dopamine D2 receptor transfected in african green monkey COS7 cells assessed as inhibition of forskolin-stimulated adenylyl cyclase activity after 10 min; type: functional, cell-based, COS-7
[1] = target: Dopamine receptor D2 and D3 (Rattus norvegicus, UniProt P19020+P61169); assay: Agonist activity at Rattus norvegicus (rat) dopamine D2/D3 receptor transfected in african green monkey COS7 cells assessed as inhibition of forskolin-stimulated adenylyl cyclase activity after 10 min; type: functional, cell-based; conditions: cos-7

Sequence of D(3) dopamine receptor (P19020 whole entry): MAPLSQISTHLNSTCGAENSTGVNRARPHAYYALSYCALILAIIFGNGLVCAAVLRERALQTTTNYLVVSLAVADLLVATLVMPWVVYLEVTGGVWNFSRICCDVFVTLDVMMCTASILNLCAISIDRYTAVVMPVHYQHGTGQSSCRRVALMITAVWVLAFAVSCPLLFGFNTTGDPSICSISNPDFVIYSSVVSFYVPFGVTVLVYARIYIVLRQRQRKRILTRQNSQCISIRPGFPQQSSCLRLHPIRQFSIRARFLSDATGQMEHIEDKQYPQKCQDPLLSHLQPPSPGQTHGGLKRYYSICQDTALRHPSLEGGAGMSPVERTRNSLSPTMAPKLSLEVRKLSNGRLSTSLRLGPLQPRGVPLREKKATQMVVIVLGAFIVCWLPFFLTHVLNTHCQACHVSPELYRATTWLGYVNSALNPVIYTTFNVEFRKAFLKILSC
Sequence of D(2) dopamine receptor (P61169 whole entry): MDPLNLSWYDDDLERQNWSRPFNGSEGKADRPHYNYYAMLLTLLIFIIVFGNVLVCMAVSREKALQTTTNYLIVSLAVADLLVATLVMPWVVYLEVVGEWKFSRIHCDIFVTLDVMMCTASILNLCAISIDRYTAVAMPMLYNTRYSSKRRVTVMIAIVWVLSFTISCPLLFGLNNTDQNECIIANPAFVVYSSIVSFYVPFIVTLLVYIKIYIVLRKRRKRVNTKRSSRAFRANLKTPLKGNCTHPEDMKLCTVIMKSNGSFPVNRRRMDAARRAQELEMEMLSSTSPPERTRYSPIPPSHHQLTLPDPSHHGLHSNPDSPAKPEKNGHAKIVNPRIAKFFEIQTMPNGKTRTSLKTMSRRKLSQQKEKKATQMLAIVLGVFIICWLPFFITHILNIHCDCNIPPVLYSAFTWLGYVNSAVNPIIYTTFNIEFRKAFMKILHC

| Ki (D(3) dopamine receptor) | EC50 [1] | Compound | IC50 (D(3) dopamine receptor) | EC50 (D(2) dopamine receptor) |
| --- | --- | --- | --- | --- |
| 2.42 nM |  | N#Cc1ccc2c(c1)[C@H]1CN(CCCCNC(=O)c3ccc(-c4ccccc4)cc3)C[C@@H]1CO2 |  |  |
|  | 1.5 nM | CCCN1CCO[C@@H]2c3cc(C(N)=O)ccc3CC[C@H]21 (relative stereo) | 4.13 nM | 49.5 nM |
|  |  | CCCN[C@H]1CCc2nc(N)sc2C1 [PRAMIPEXOLE] | 7.8 nM |  |
|  |  | CCCN(CCC)CCc1cccc2c1CC(=O)N2 [ROPINIROLE] |  | 75.5 nM |
